From patent US20260159534A1, “NOVEL CRYSTAL FORMS OF PEPTIDE BORIC ACID COMPOUND AND PREPARATION METHODS THEREFOR” (JIANGSU CHUANGTE PHARMACEUTICAL TECHNOLOGY CO., LTD., priority 2021, published 2026)
In brackets after ≈: the same amount, converted by molar mass.

Tests used:
Assay type in all cases: physicochemical
[1] = Solubility test in ultra-pure water; details: for Solubility property (in words): solubility and kinetic solubility; for Solubility: upper limit 300 μg/mL
Source text: (§1) Four crystal samples produced, namely the eutectic sample and the crystal form A sample of Example 1, the crystal form B sample of Example 2, and the crystal form D sample of Example 3, were subjected to solubility tests and a kinetic solubility determination tests in ultra-pure water, and the solubility results are shown in Tables 1 and 2.

[2] = Kinetic solubility determination in ultra-pure water; details: upper limit 1000 μg/mL
Source text: as §1

[3] = Hygroscopicity test (dynamic vapor sorption); details: 25° C.; for Hygroscopicity / Hygroscopicity comparison (in words): 0-80% RH; for Weight change in the range of 0% RH to 80% RH: dynamic vapor sorption
Procedure: Four crystal samples produced, namely the eutectic sample and the crystal form A sample of Example 1, the crystal form B sample of Example 2, and the crystal form D sample of Example 3, were subjected to hygroscopicity tests at 25° C. under a changing relative humidity of 0-80% RH.

[4] = Stability influence factor tests (high temperature, high humidity, illumination); details: for Stability during the 10 days of examination (in words): high temperature, high humidity, illumination
Procedure: Four crystal samples produced, namely the eutectic sample and the crystal form A sample of Example 1, the crystal form B sample of Example 2, and the crystal form D sample of Example 3, were each subjected the stability influence factor tests under high temperature (60° C., in the dark), high humidity (relative humidity of 90%[…], in the dark), and illumination (4500 lx±500 lx), and sampling was carried out to on day 0, day 5 day, and day 10 for […] determination, and the results are shown in Table 4 below.

[5] = 5 d, high humidity (relative humidity of 90%±50, in the dark)
[6] = 5 d, high temperature (60° C., in the dark)
[7] = 5 d, illumination (4500 lx±500 lx)
[8] = 10 d, high humidity (relative humidity of 90%±50, in the dark)
[9] = 10 d, high temperature (60° C., in the dark)
[10] = 10 d, illumination (4500 lx±500 lx)

Compound	Solubility property (in words) [1]	Solubility [1] [µg/mL]	Kinetic solubility [2] [µg/mL]	Hygroscopicity [3]	Weight change in the range of 0% RH to 80% RH [3]	Stability results (content) ([4]; 0 h) [%]	Stability results (content) [4, 5] [%]	Stability results (content) [4, 6] [%]	Stability results (content) [4, 7] [%]	Stability results (content) [4, 8] [%]	Stability results (content) [4, 9] [%]	Stability results (content) [4, 10] [%]	Stability during the 10 days of examination (in words) [4]	Hygroscopicity comparison (in words) [3]
CSC[C@H](NC(=O)c1cc(Cl)ccc1Cl)C(=O)N[C@@H](CC(C)C)B1OCCNCCO1 [Crystal form D of Example 3, N—((R)-1-(((R)-1-(1,3,6,2-dioxazaborolan-2-yl)-3-methylbutyl)amino)-3-(methylthio)-1-oxoprop-2-yl)-2,5-dichlorobenzamide]	excellent solubility property	304.21 (≈ 621 µM)	902.91	Deliquescent	2.4%	98.05	97.88	97.68	98.07	98.39	98.52	98.49	no significant content change	
N—((R)-1-(((R)-1-(1,3,6,2-dioxazaborolan-2-yl)-3-methylbutyl)amino)-3-(methylthio)-1-oxoprop-2-yl)-2,5-dichlorobenzamide [White eutectic solid of Example 1]	excellent solubility property	310.12	948.16	Deliquescent	2.1%	98.10				93.18	97.49	98.06	unstable	
CSC[C@H](NC(=O)c1cc(Cl)ccc1Cl)C(=O)N[C@@H](CC(C)C)B1OCCNCCO1 [Crystal form A of Example 1, N—((R)-1-(((R)-1-(1,3,6,2-dioxazaborolan-2-yl)-3-methylbutyl)amino)-3-(methylthio)-1-oxoprop-2-yl)-2,5-dichlorobenzamide]	excellent solubility property	318.09 (≈ 649 µM)	958.47		1.4%	99.01	99.24	98.97	98.61	99.23	99.22	98.90	no significant content change	weaker hygroscopicity compared with the crystal form D
CSC[C@H](NC(=O)c1cc(Cl)ccc1Cl)C(=O)N[C@@H](CC(C)C)B1OCCNCCO1 [Crystal form B of Example 2, N—((R)-1-(((R)-1-(1,3,6,2-dioxazaborolan-2-yl)-3-methylbutyl)amino)-3-(methylthio)-1-oxoprop-2-yl)-2,5-dichlorobenzamide]	excellent solubility property	302.80 (≈ 618 µM)	1078.59	Nonhygroscopic	Less than 0.2%	99.16	98.41	98.92	99.22	99.08	99.25	99.11	no significant content change	weaker hygroscopicity compared with the crystal form D
